Measurements taken from patent US20090298942A1, “ANIMAL COMPOSITION” (priority 2002, published 2009).

What follows are compounds tested on dogs (assay: Example 2: success at learning the discrimination task (Test B) after twenty two days on the assigned diet). Settings: 0.3% amino acid added to control food product with approximately 2% leucine.
Assay type: in vivo
Protocol: The baseline learning capability of each dog was determined in a discrimination task (Test A) allowing the dogs to be divided into two groups, slow and fast learners. The slow and fast learners were randomly assigned to diet A, B, C or D. Dogs remained on their assigned diet for a period of twenty two days and their learning capability was then re evaluated with another discrimination task (Test B). The time to successfully learn the discrimination task, the total number of discrimination attempts, and the proportion of correct responses by each dog was recorded.
Test B was introduced in stages in a similar way to Test A. Again each dog was in the test area for up to an hour depending on the length of time that it took for the dog to complete the task.
Stage 1 The food preference test was repeated where necessary.
Stage 2 The dog was taken down the side of each box and encouraged to enter the food drop area from the rear by throwing food forward into the area.
Stage 3 The handler stood in front of one of the boxes and encouraged the dog to go down the side and into the box on its own. As its head reached the end of the entrance passage food was dropped by hand over the front panel into the area. This was repeated at random with both boxes.
Stage 4 The dog was placed centrally about 2.5 m back from the boxes and a red light was activated. The handler walked forward towards the light encouraging the dog to go forward along the side passage and into the box alone where a food pellet was dropped through the hatch as the dog's head reached the end of the entrance passage.
Stage 5 The dog was placed centrally approximately 3 m away from the equipment. A light was activated and the dog allowed time to scan the equipment. The dog was then released to make its own decision about which box to approach. If and when it entered the correct box a food pellet was dropped into the area.
These five introductory stages took, on average, 20 minutes, depending on the initial reaction of the dog to the surroundings. […]

Row | Compound | improvement in canine learning
1 | N[C@@H](Cc1c[nH]c2ccccc12)C(=O)O [tryptophan] | Statistically significant improvements in canine learning were not demonstrated
2 | CC(C)C[C@H](N)C(=O)O [leucine] | measurable improvement in canine learning
3 | CC[C@H](C)[C@H](N)C(=O)O [isoleucine] | Statistically significant improvements in canine learning were not demonstrated
